{"source": "paper PMC10177510", "about": "“A Multicenter, Open-Label, Phase I/II Study of FN-1501 in Patients with Advanced Solid Tumors” (Cancers, 2023)", "origin": "cited, not measured here", "system": "MV-4-11", "details": "cited from earlier work"}
{"compound": "CCc1nc(C(N)=O)c(Nc2ccc(N3CCC(N4CCN(C)CC4)CC3)c(OC)c2)nc1NC1CCOCC1", "note": "[gilteritinib, reference compound]", "values": [{"measurement": "IC50", "result": 0.5, "unit": "ng/mL"}]}
